# Tested on: Nippostrongylus brasiliensis
# Test: Anthelmintic activity against Nippostrongylus brasiliensis L4 parasitant on day 5 by double serial dilution model
# Assay type: functional, organism-based
# Conditions: 120 h
row,Structure (SMILES),EC50 [µM]
1,O=C(/C=C/c1c[nH]c2ccccc12)N/C=C/c1c[nH]c2ccccc12 [CHONDRIAMIDE A],260
2,O=C(/C=C/c1c[nH]c2ccccc12)N/C=C\c1c[nH]c2ccccc12 [CHONDRIAMIDE C],90
3,COc1cccc2c(/C=C/C(=O)N/C=C/c3cn(C)c4ccccc34)cn(C)c12,300
4,NC(=O)/C=C/c1c[nH]c2ccccc12,2370

# — ChEMBL document CHEMBL1151333, “A new indole derivative from the red alga Chondria atropurpurea. Isolation, structure determination, and anthelmintic activity” (J Nat Prod, 1998)
